From PubChem BioAssay AID2060496 (Molecular Pharmacology Branch, DTP, NCI, 2025)

System: 276233-004-R-J1-PDC complex spheroid viability
Assay: Anticancer human tumor 276233-004-R-J1-PDC patient-derived colon adenocarcinoma cell line growth inhibition [GQUAD]
Conditions: for IC50: curve of first compound; for viability, T/C: stronger effect = lower value
Text: DNA G-quadruplex Stabilizer Agents in Combinations in Complex Spheroids
A high-throughput screen of multi-cell type tumor spheroids was designed to identify active combinations of DNA G-quadruplex stabilizer agents and targeted small molecules. Complex spheroids include a stromal component modeled by human endothelial cells (HUVEC) and fibroblasts modeled by human mesenchymal stem cells (MSCs). The concentration ranges selected for each drug and investigational agent were based upon clinically achievable concentrations if the clinical Cmax of the agent was known.
Compounds. The drugs and investigational agents: pidnarulex (CX-5461; NSC782164), APTO-253 (NSC789042), BRACO-19 (NSC847499), peposertib (NSC802822), ceralasertib (NSC780249), elimusertib (NSC800525), camonsertib (NSC841442), AZD-1390 (NSC803789), olaparib (NSC753686), talazoparib (NSC767125), ART-558 (NSC835418), sotorasib (NSC818433), MRTX-1133 (NSC836407), SN-38 (NSC673596), topotecan (NSC609699), etoposide (NSC141540), doxorubicin (NSC123127), gemcitabine (NSC613327), 5-fluorouracil (NSC19893), paclitaxel (NSC125973), vemurafenib (NSC761431), panobinostat (NSC761190), R-306465 (JNJ-16241199; NSC773264), adavosertib (NSC754352), TP-3654 (NSC805149), carboplatin (NSC241240), KSQ-4279 (NSC840948), and staurosporine (NSC755774) were obtained from the National Cancer Institute (NCI) Developmental Therapeutics Program Chemical Repository (34). The FDA-approved anticancer drug set is available from the NCI Developmental Therapeutics Program. […] The stock solutions were prepared in dimethyl sulfoxide (DMSO, Sigma-Aldrich, St. Louis, MO, cat. D2650) at 800-fold the tested concentration and stored at -70 degrees C prior to their use. All drugs and investigational agents were tested over a range starting from a high concentration at or near the clinical Cmax and decreasing in half-log increments. If the clinical Cmax for an agent had not been determined, the highest concentration tested was 10 microM.
2.3 Cell Culture. All cells were maintained in an incubator at 37 degrees C and 5% CO2 with 95% humidity. The PDC lines were cultured according to standard operating procedures established by the NCI PDMR. All PDCs were thawed and cultured in Matrigel-coated flasks prepared with a working solution of 1X Ham's F-12 nutrient mix, without supplementation (Invitrogen, cat. 11765054), 100 U/mL penicillin-streptomycin (Invitrogen, cat. 15140122), and 2.5% Matrigel (Corning Inc., cat. 354248) for the first three passages. The 857933-349-R-J2-PDC line was cultured in 6C/Colon 1B media, which includes advanced DMEM/F-12 (Thermo Fisher Scientific, cat. 12634028), 10 mM HEPES (Thermo Fisher Scientific, cat. 15630080), 1X GlutaMAX supplement (Thermo Fisher Scientific, cat. 35050061), 0.1 mg/mL primocin (InvivoGen, cat. ant-pm-2), 10% defined fetal bovine serum, heat inactivated (HyClone Laboratories Inc., cat. SH30070.03HI), 50% L-WRN conditioned media (ATCC, cat. CRL-3276), 1.25 mM N-Acetyl-L-cysteine (Sigma-Aldrich, cat. A9165), 10 mM nicotinamide (Sigma-Aldrich, cat. N0636), 1X B-27 supplement (Thermo Fisher Scientific, cat. 17504044), 1X N-2 supplement (Thermo Fisher Scientific, cat. 17502048), 10 microM Y-27632 dihydrochloride (Tocris Bioscience, cat. 1254), and 50 ng/mL human EGF recombinant protein (Thermo Fisher Scientific, cat. PHG0311). The 485176-168-R4-J1-PDC line was cultured in Panc media, which includes all 6C/Colon 1B media components plus 100 ng/mL human FGF-10 (Thermo Fisher Scientific, cat. 100-26), 500 nM SB-431542 (Selleckchem, cat. S1067), and gastrin (Tocris, cat. 3006).
[…]

[1] = second compound 0.0316 µM, first compound 0.0316 µM
[2] = second compound 0.0316 µM, first compound 0.1 µM
[3] = second compound 0.0316 µM, first compound 0.316 µM
[4] = second compound 0.0316 µM, first compound 1 µM
[5] = second compound 0.0316 µM, first compound 3.16 µM
[6] = second compound 0.0316 µM, first compound 10 µM
[7] = second compound 0.1 µM, first compound 0.0316 µM
[8] = second compound 0.1 µM, first compound 0.1 µM
[9] = second compound 0.1 µM, first compound 0.316 µM
[10] = second compound 0.1 µM, first compound 1 µM
[11] = second compound 0.1 µM, first compound 3.16 µM
[12] = second compound 0.1 µM, first compound 10 µM
[13] = second compound 0.316 µM, first compound 0.0316 µM
[14] = second compound 0.316 µM, first compound 0.1 µM
[15] = second compound 0.316 µM, first compound 0.316 µM
[16] = second compound 0.316 µM, first compound 1 µM
[17] = second compound 0.316 µM, first compound 3.16 µM
[18] = second compound 0.316 µM, first compound 10 µM
[19] = second compound 1 µM, first compound 0.0316 µM
[20] = second compound 1 µM, first compound 0.1 µM
[21] = second compound 1 µM, first compound 0.316 µM
[22] = second compound 1 µM, first compound 1 µM
[23] = second compound 1 µM, first compound 3.16 µM
[24] = second compound 1 µM, first compound 10 µM
[25] = second compound 3.16 µM, first compound 0.0316 µM
[26] = second compound 3.16 µM, first compound 0.1 µM
[27] = second compound 3.16 µM, first compound 0.316 µM
[28] = second compound 3.16 µM, first compound 1 µM
[29] = second compound 3.16 µM, first compound 3.16 µM
[30] = second compound 3.16 µM, first compound 10 µM
[31] = second compound 10 µM, first compound 0.0316 µM
[32] = second compound 10 µM, first compound 0.1 µM
[33] = second compound 10 µM, first compound 0.316 µM
[34] = second compound 10 µM, first compound 1 µM
[35] = second compound 10 µM, first compound 3.16 µM
[36] = second compound 10 µM, first compound 10 µM
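Also: spheroids exposed to drugs for seven days.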
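For viability, T/C in this document: 100% = DMSO vehicle control viability.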

SMILES: COc1ccc([C@@H](O)c2cc(-c3ncnc4cc(N5CCOCC5)ccc34)c(F)cc2Cl)nn1 + Cc1[nH]c2ccc(F)cc2c1-c1nc2c3cccnc3c3ncccc3c2[nH]1
- IC50 (second compound 0.0316 µM): > 10 µM
- IC50 (second compound 0.1 µM): > 10 µM
- IC50 (second compound 0.316 µM): > 10 µM
- IC50 (second compound 1 µM): 5.02 µM
- IC50 (second compound 3.16 µM): 0.424 µM
- IC50 (second compound 10 µM): 0.352 µM
- viability, T/C [1]: 89.6%
- viability, T/C [2]: 77.9%
- viability, T/C [3]: 97.2%
- viability, T/C [4]: 72.6%
- viability, T/C [5]: 72.6%
- viability, T/C [6]: 68.7%
- viability, T/C [7]: 88.3%
- viability, T/C [8]: 79.6%
- viability, T/C [9]: 70.5%
- viability, T/C [10]: 74%
- viability, T/C [11]: 72.7%
- viability, T/C [12]: 65.7%
- viability, T/C [13]: 87.8%
- viability, T/C [14]: 79.4%
- viability, T/C [15]: 96%
- viability, T/C [16]: 80.9%
- viability, T/C [17]: 70.9%
- viability, T/C [18]: 61.2%
- viability, T/C [19]: 61.1%
- viability, T/C [20]: 70.1%
- viability, T/C [21]: 67%
- viability, T/C [22]: 62.2%
- viability, T/C [23]: 50.4%
- viability, T/C [24]: 44.5%
- viability, T/C [25]: 59%
- viability, T/C [26]: 51.7%
- viability, T/C [27]: 51.1%
- viability, T/C [28]: 49.1%
- viability, T/C [29]: 33.3%
- viability, T/C [30]: 24.1%
- viability, T/C [31]: 53.4%
- viability, T/C [32]: 48%
- viability, T/C [33]: 53%
- viability, T/C [34]: 41.5%
- viability, T/C [35]: 29%
- viability, T/C [36]: 25.6%

SMILES: Cc1cccc(N(C)C(=O)C2C(O)CCN2c2nc(C)cc(C(F)(F)F)c2C#N)c1 (centres undefined) + Cc1[nH]c2ccc(F)cc2c1-c1nc2c3cccnc3c3ncccc3c2[nH]1
- IC50 (second compound 0.0316 µM): > 10 µM
- IC50 (second compound 0.1 µM): > 10 µM
- IC50 (second compound 0.316 µM): > 10 µM
- IC50 (second compound 1 µM): > 10 µM
- IC50 (second compound 3.16 µM): > 10 µM
- IC50 (second compound 10 µM): > 10 µM
- viability, T/C [1]: 110%
- viability, T/C [2]: 83.8%
- viability, T/C [3]: 87.2%
- viability, T/C [4]: 87.4%
- viability, T/C [5]: 117%
- viability, T/C [6]: 114%
- viability, T/C [7]: 88.2%
- viability, T/C [8]: 95.6%
- viability, T/C [9]: 86.4%
- viability, T/C [10]: 95.3%
- viability, T/C [11]: 96.6%
- viability, T/C [12]: 97.8%
- viability, T/C [13]: 74.6%
- viability, T/C [14]: 78%
- viability, T/C [15]: 103%
- viability, T/C [16]: 97.8%
- viability, T/C [17]: 96%
- viability, T/C [18]: 96.8%
- viability, T/C [19]: 77.4%
- viability, T/C [20]: 85.2%
- viability, T/C [21]: 71.6%
- viability, T/C [22]: 79.2%
- viability, T/C [23]: 90.5%
- viability, T/C [24]: 85.2%
- viability, T/C [25]: 60.5%
- viability, T/C [26]: 56.8%
- viability, T/C [27]: 61.6%
- viability, T/C [28]: 59.6%
- viability, T/C [29]: 59.8%
- viability, T/C [30]: 62.6%
- viability, T/C [31]: 53.7%
- viability, T/C [32]: 58.4%
- viability, T/C [33]: 58.6%
- viability, T/C [34]: 52.1%
- viability, T/C [35]: 58%
- viability, T/C [36]: 64.7%
